Experimental data: the CheMixHub viscosity set
Several values for one entry are separate records, joined by “and”; a condition that tells them apart may be missing. Equal entries are not always repeated. ± gives the uncertainty stated by the source.

Assay: xn = mol fraction of the nth substance listed

COC[N+]1(C)CCCC1.O=S(=O)([N-]S(=O)(=O)C(F)(F)F)C(F)(F)F + O
101 kPa, x2 = 0.1527
Conditions	viscosity [mPa·s]
293.15 K	35.2 ± 0.8
298.15 K	29.4 ± 0.7
303.15 K	24.8 ± 0.6
313.15 K	18.1 ± 0.4
323.15 K	13.8 ± 0.3

C[N+](C)(C)CCO.O=C([O-])C(F)(F)F + O
Conditions	viscosity [mPa·s]
298 K, 101.33 kPa, x2 = 0.8	7.7

O=S(=O)([O-])[O-].[Li+].[Li+] + O
Conditions	viscosity
293.15 K, 101 kPa, x1 = 0.007256	1.26 ± 0.03 mPa·s
293.15 K, 101 kPa, x1 = 0.01412	1.55 ± 0.03 mPa·s
293.15 K, 101 kPa, x1 = 0.02103	1.89 ± 0.04 mPa·s
293.15 K, 101 kPa, x1 = 0.02766	2.31 ± 0.05 mPa·s
293.15 K, 101 kPa, x1 = 0.03404	2.82 ± 0.06 mPa·s
293.15 K, 101 kPa, x1 = 0.04479	4.02 ± 0.09 mPa·s
293.15 K, 101 kPa, x1 = 0.05103	5.05 ± 0.11 mPa·s
293.15 K, 101 kPa, x1 = 0.05234	5.28 ± 0.11 mPa·s
293.15 K, 101 kPa, x1 = 0.05329	5.47 ± 0.12 mPa·s
293.15 K, 101 kPa, x1 = 0.05449	5.71 ± 0.12 mPa·s
298.15 K, 101 kPa, x1 = 0.007256	1.12 ± 0.02 mPa·s
298.15 K, 101 kPa, x1 = 0.00868	1.152 ± 0.029 mPa·s and 1.152 ± 0.067 mPa·s
298.15 K, 101 kPa, x1 = 0.01412	1.38 ± 0.03 mPa·s
298.15 K, 101 kPa, x1 = 0.02103	1.69 ± 0.04 mPa·s
298.15 K, 101 kPa, x1 = 0.02192	1.705 ± 0.043 mPa·s and 1.705 ± 0.11 mPa·s
298.15 K, 101 kPa, x1 = 0.02766	2.05 ± 0.04 mPa·s
298.15 K, 101 kPa, x1 = 0.03404	2.49 ± 0.05 mPa·s
298.15 K, 101 kPa, x1 = 0.03935	2.947 ± 0.075 mPa·s and 2.947 ± 0.21 mPa·s
298.15 K, 101 kPa, x1 = 0.04479	3.49 ± 0.07 mPa·s
298.15 K, 101 kPa, x1 = 0.05103	4.36 ± 0.09 mPa·s
298.15 K, 101 kPa, x1 = 0.05234	4.57 ± 0.1 mPa·s
298.15 K, 101 kPa, x1 = 0.05329	4.71 ± 0.1 mPa·s
298.15 K, 101 kPa, x1 = 0.05449	4.95 ± 0.11 mPa·s
298.15 K, 101.33 kPa, x1 = 0.05143	2.05 ± 0.058 mPa·s
298.15 K, 101.33 kPa, x1 = 0.05627	3.659 ± 0.098 mPa·s
300.15 K, 101 kPa, x1 = 0.05329	4.47 ± 0.1 mPa·s
300.15 K, 101 kPa, x1 = 0.05449	4.7 ± 0.1 mPa·s
303.15 K, 101 kPa, x1 = 0.007256	0.99 ± 0.02 mPa·s
303.15 K, 101 kPa, x1 = 0.01412	1.22 ± 0.03 mPa·s
303.15 K, 101 kPa, x1 = 0.02103	1.51 ± 0.03 mPa·s
303.15 K, 101 kPa, x1 = 0.02766	1.82 ± 0.04 mPa·s
303.15 K, 101 kPa, x1 = 0.03404	2.21 ± 0.05 mPa·s
303.15 K, 101 kPa, x1 = 0.04479	3.06 ± 0.07 mPa·s
303.15 K, 101 kPa, x1 = 0.05103	3.81 ± 0.08 mPa·s
303.15 K, 101 kPa, x1 = 0.05234	3.99 ± 0.09 mPa·s
303.15 K, 101 kPa, x1 = 0.05329	4.11 ± 0.09 mPa·s
303.15 K, 101 kPa, x1 = 0.05449	4.3 ± 0.09 mPa·s
305.15 K, 101 kPa, x1 = 0.05329	3.89 ± 0.08 mPa·s
305.15 K, 101 kPa, x1 = 0.05449	4.1 ± 0.09 mPa·s
308.15 K, 101 kPa, x1 = 0.05103	3.33 ± 0.07 mPa·s
308.15 K, 101 kPa, x1 = 0.05234	3.49 ± 0.07 mPa·s
308.15 K, 101 kPa, x1 = 0.05329	3.57 ± 0.08 mPa·s
310.15 K, 101 kPa, x1 = 0.05329	3.39 ± 0.07 mPa·s
311.15 K, 101 kPa, x1 = 0.05234	3.25 ± 0.07 mPa·s
312.15 K, 101 kPa, x1 = 0.05329	3.24 ± 0.07 mPa·s
313.15 K, 101 kPa, x1 = 0.007256	0.8 ± 0.02 mPa·s
313.15 K, 101 kPa, x1 = 0.01412	0.99 ± 0.02 mPa·s
313.15 K, 101 kPa, x1 = 0.02103	1.21 ± 0.03 mPa·s
313.15 K, 101 kPa, x1 = 0.02766	1.49 ± 0.03 mPa·s
313.15 K, 101 kPa, x1 = 0.03404	1.76 ± 0.04 mPa·s
313.15 K, 101 kPa, x1 = 0.04479	2.42 ± 0.05 mPa·s
313.15 K, 101 kPa, x1 = 0.05103	2.96 ± 0.06 mPa·s
313.15 K, 101 kPa, x1 = 0.05234	3.1 ± 0.07 mPa·s
313.15 K, 101 kPa, x1 = 0.05329	3.17 ± 0.07 mPa·s
314.15 K, 101 kPa, x1 = 0.05329	3.11 ± 0.07 mPa·s
316.15 K, 101 kPa, x1 = 0.05234	2.89 ± 0.06 mPa·s
318.15 K, 101 kPa, x1 = 0.05103	2.65 ± 0.06 mPa·s
318.15 K, 101 kPa, x1 = 0.05234	2.77 ± 0.06 mPa·s
320.15 K, 101 kPa, x1 = 0.05234	2.66 ± 0.06 mPa·s
323.15 K, 101 kPa, x1 = 0.00868	0.7 ± 0.036 mPa·s
323.15 K, 101 kPa, x1 = 0.02192	1.014 ± 0.057 mPa·s
323.15 K, 101 kPa, x1 = 0.03935	1.669 ± 0.11 mPa·s
323.15 K, 101 kPa, x1 = 0.05103	2.37 ± 0.05 mPa·s
323.15 K, 101 kPa, x1 = 0.05234	2.52 ± 0.05 mPa·s
323.15 K, 101.33 kPa, x1 = 0.05088	1.378 mPa·s

OC(C(F)(F)F)C(F)(F)F + O
viscosity [mPa·s], 101 kPa
Conditions	298.15 K	303.15 K	313.15 K	323.15 K
x1 = 0.002095	0.921 ± 0.008	0.824 ± 0.007	0.671 ± 0.006	0.559 ± 0.005
x1 = 0.004456	0.959 ± 0.008	0.857 ± 0.007	0.691 ± 0.006	0.575 ± 0.005
x1 = 0.008636	1.027 ± 0.009	0.911 ± 0.008	0.73 ± 0.006	0.602 ± 0.005
x1 = 0.01141	1.076 ± 0.009	0.951 ± 0.008	0.756 ± 0.006	0.621 ± 0.005
x1 = 0.0205	1.22 ± 0.01	1.069 ± 0.009	0.84 ± 0.007	0.682 ± 0.006
x1 = 0.0264	1.31 ± 0.011	1.147 ± 0.009	0.897 ± 0.008	0.727 ± 0.006
x1 = 0.04493	1.583 ± 0.013	1.383 ± 0.011	1.075 ± 0.009	0.869 ± 0.007
x1 = 0.06872	1.854 ± 0.015	1.606 ± 0.013	1.246 ± 0.01	0.997 ± 0.008
x1 = 0.09912	2.077 ± 0.017	1.797 ± 0.015	1.377 ± 0.011	1.094 ± 0.009
x1 = 0.1716	2.251 ± 0.018	1.93 ± 0.02	1.463 ± 0.012	1.147 ± 0.009
x1 = 0.2057	2.246 ± 0.018	1.934 ± 0.016	1.459 ± 0.012	1.142 ± 0.009
x1 = 0.3052	2.102 ± 0.017	1.83 ± 0.015	1.4 ± 0.011	1.086 ± 0.009
x1 = 0.4208	1.879 ± 0.015	1.633 ± 0.013	1.262 ± 0.01	1.004 ± 0.008
x1 = 0.5004	1.76 ± 0.014	1.541 ± 0.013	1.202 ± 0.01	0.964 ± 0.008
x1 = 0.6306	1.636 ± 0.013	1.433 ± 0.012	1.119 ± 0.009	0.907 ± 0.008
x1 = 0.6778	1.606 ± 0.013	1.405 ± 0.011	1.102 ± 0.009	0.883 ± 0.007
x1 = 0.7422	1.585 ± 0.013	1.39 ± 0.011	1.077 ± 0.009	0.864 ± 0.007
x1 = 0.8064	1.575 ± 0.013	1.374 ± 0.011	1.049 ± 0.009	0.849 ± 0.007
x1 = 0.8456	1.575 ± 0.013	1.372 ± 0.011	1.045 ± 0.009	0.833 ± 0.007
